Reference: article PMC3242765, “Inhibitors of Alphavirus Entry and Replication Identified with a Stable Chikungunya Replicon Cell Line and Virus-Based Assays” (PLoS ONE, 2011)
“Also recorded” adds a separate entry of the source. Read-outs that look alike come from different tables or passages of the source.

Key:
[1] = tested on: CHIKV replicon; assay: microbe, parasite or virus in culture; format: cell-based, Chikungunya virus (CHIKV); settings: for IC50: Chikungunya virus, 48 h
[2] = tested on: BHK-CHIKV-NCT cells; assay: Cell viability ATP assay, BHK-CHIKV-NCT cells; format: cell-based, hamster
[3] = tested on: BHK cells; assay: Cell viability ATP assay, BHK cells; format: cell-based, hamster; settings: Mesocricetus auratus, BHK, 48 h, read-out: Cell viability IC50
[4] = tested on: SFV; assay: CPE reduction assay, SFV (WST-1); format: cell-based, Semliki Forest virus (SFV); settings: Semliki Forest virus, BHK, 22 h, read-out: SFV IC50 (CPE reduction)
[5] = tested on: SINV; assay: CPE reduction assay, SINV (WST-1); format: cell-based, Sindbis virus (SINV); settings: Sindbis virus, BHK, 24 h, read-out: SINV IC50 (CPE reduction)
[6] = tested on: SFV; assay: Viral yield analysis using a plaque assay; format: cell-based, Semliki Forest virus (SFV); settings: for SFV yield: BHK cells, MOI 0.01, 50 µM compound, 16 h, untreated control 1.4×10^9 PFU/ml
[7] = tested on: SFVts9-Rluc; format: cell-based, Semliki Forest virus (SFV)
[8] = tested on: CHIKV-Rluc; assay: microbe, parasite or virus in culture; format: cell-based, Chikungunya virus (CHIKV); settings: Chikungunya virus, BHK, 16 h, read-out: CHIKV-Rluc IC50
[9] = tested on: SFV-Rluc
[10] = tested on: SFV-Rluc; assay: microbe, parasite or virus in culture; settings: Semliki Forest virus, BHK; for IC50: 14 h, read-out: SFV IC50
[11] = tested on: CHIKV; settings: cited from earlier work
[12] = tested on: CHIKV; settings: 2006 La Réunion outbreak; cited from earlier work
[13] = Mesocricetus auratus, 48 h, read-out: Cell viability IC50, ATP assay, 48 h exposure of BHK-CHIKV-NCT cells, up to 200 µM

SMILES	CHIKV replicon % left [1]	IC50 ([1]; read-out: EGFP IC50)	IC50 ([1]; read-out: Rluc IC50)	IC50 [2, 13]	IC50 [3]	IC50 [4]	IC50 [5]	SFV yield [6]	Effect on SFV entry (Rluc activity) [7]	IC50 [8]	SFV replication % left (surviving fraction, remaining percentage of SFV replication) [9]	SI (selectivity index) [9]	IC50 [10]	other results
O=c1cc(-c2ccc(O)cc2)oc2cc(O)cc(O)c12 [Apigenin]	8.7%	22.5 µM	28.3 µM	> 200 µM	> 200 µM	4.4 µM	7.2 µM	6.7×10^7 PFU/ml	None of the other compounds, including the flavonoids apigenin, chrysin, naringenin and silybin, inhibited SFV entry	70.8 µM	18.0%	>9.7	20.6 µM	–
CN(C)CCCN1c2ccccc2Sc2cccnc21 [Prothipendyl]	–	135 µM	93.3 µM	186 µM	> 200 µM	34.2 µM	46.5 µM	4.0×10^8 PFU/ml	–	97.3 µM	–	>24.4	8.2 µM	–
COc1cc(C2Oc3cc([C@H]4Oc5cc(O)cc(O)c5C(=O)[C@@H]4O)ccc3OC2CO)ccc1O (stereo partly shown) [Silybin]	14.1%	71.1 µM	59.8 µM	> 200 µM	> 200 µM	9.6 µM	22.6 µM	3.7×10^8 PFU/ml	None of the other compounds, including the flavonoids apigenin, chrysin, naringenin and silybin, inhibited SFV entry	92.3 µM	22.4%	>12.2	16.4 µM	–
O=c1cnn([C@@H]2O[C@H](CO)[C@@H](O)[C@H]2O)c(=O)[nH]1 [6-Azauridine]	–	–	–	> 200 µM	> 200 µM	> 200 µM	> 200 µM	9.1×10^7 PFU/ml	–	29.7 µM	–	–	> 200 µM	IC50 ([11]; approximate conversion of 0.2 µg/ml, read-out: previously reported potency for CHIKV, converted): ~0.8 µM; previously reported potency for CHIKV [11]: 0.2 µg/mL; inhibition at 200 µM ([10]; read-out: Inhibition of SFV-Rluc): 40%
CCN(CC)CCCC(C)Nc1ccnc2cc(Cl)ccc12 (stereo not shown) [Chloroquine]	104.4%	–	–	–	> 200 µM	8.2 µM	11.3 µM	3.3×10^7 PFU/ml	–	–	12.2%	>14.9	13.4 µM	Suppression of CHIKV replicon (in words) [1]: no suppression of replicon propagation; also recorded: has no effect on CHIKV replicon; Decrease of SFV titer versus untreated control ([6]; 50 µM compound, MOI 0.01, 16 h): two orders of magnitude; Effect on Rluc signal of SFVts9-Rluc (entry) [7]: dose-dependent inhibition of Rluc signal; Clinical efficacy in acute CHIKV viremia (duration of viremia, severity and duration of symptoms) [12]: failed to show any benefits
O=C1C[C@@H](c2ccc(O)cc2)Oc2cc(O)cc(O)c21 [Naringenin]	6.2%	25.8 µM	30 µM	104 µM	94.1 µM	19.3 µM	21.2 µM	8.2×10^7 PFU/ml	None of the other compounds, including the flavonoids apigenin, chrysin, naringenin and silybin, inhibited SFV entry	118 µM	-0.0736%	42.8	2.2 µM	IC50 ([2]; read-out: Cell viability IC50, ATP assay, 48 h exposure of BHK-CHIKV-NCT cells, up to 200 µM): 122 µM
O=c1cc(-c2ccccc2)oc2cc(O)cc(O)c12 [Chrysin]	13.8%	46.8 µM	50.2 µM	> 200 µM	> 200 µM	22.9 µM	43.3 µM	2.9×10^8 PFU/ml	None of the other compounds, including the flavonoids apigenin, chrysin, naringenin and silybin, inhibited SFV entry	127 µM	18.1%	>14.6	13.7 µM	–
